Assay results taken from patent publication US20220235012A1, “ACID ADDITION SALT OF PYRIMETHAMINE” (GLG PHARMA S.A., priority 2018, published 2022).
Where a name gives a salt, the structure may show the parent alone.

Legend:
[1] = Solubility of pyrimethamine salts, own method at 20° C. and 60° C. in water, 10% Tween 80 and 10% Cremophor RH 40; assay type: physicochemical; details: without surfactant and/or emulsifier
[2] = Solubility in terms of Ph. Eur. 9.2 (approximate volume of solvent per gram of solute); assay type: physicochemical; details: descriptive term
Method: The solubility of pyrimethamine salts with different organic and mineral acids was evaluated according to the general recommendations described in Ph. Eur. 9.2 for the pharmaceutical active ingredients. The “solubility” ° according to Ph. Eur. 9.2, is the approximate volume of solvent in millilitres per gram of solute.

[3] = cited from earlier work

Row | Compound | solubility in water at ambient temperature [1] | Solubility in terms of Ph. Eur. 9.2 [2] | solubility of pyrimethamine in water [3]
1 | CCc1nc(N)nc(N)c1-c1ccc(Cl)cc1 [Methanesulfonate, methanesulfonic acid salt of 5-(4-chlorophenyl)-6-ethyl-2,4-pyrimidinediamine] | freely soluble | Sparingly soluble | –
2 | CCc1nc(N)nc(N)c1-c1ccc(Cl)cc1 [pyrimethamine, 5-(4-chlorophenyl)-6-ethyl-2,4-pyrimidinediamine] | – | – | 10 µg/mL
